Conditions: Gas, isochoric method

CCF [fluoroethane]
Conditions	mass density [kg/m3]
300.16 K, 642.2 kPa	13.92
305.16 K, 656.6 kPa	13.917
310.14 K, 670.4 kPa	13.913
312.16 K, 1205.6 kPa	27.61
314.16 K, 1218.3 kPa	27.607
315.15 K, 684.8 kPa	13.91
316.15 K, 1231.8 kPa	27.605
318.15 K, 1244.1 kPa	27.602
320.14 K, 698.5 kPa	13.906
322.16 K, 1268.7 kPa	27.596
324.15 K, 1614.6 kPa	37.54
325.14 K, 712.3 kPa	13.903
326.14 K, 1634.4 kPa	37.536
326.16 K, 1293.4 kPa	27.591
328.15 K, 1652.5 kPa	37.533
330.15 K, 1670.2 kPa	37.529
330.16 K, 726.1 kPa	13.899
330.16 K, 1317.6 kPa	27.585
332.15 K, 2022.6 kPa	48.84
334.16 K, 1341.9 kPa	27.58
334.16 K, 1704.9 kPa	37.521
334.16 K, 2047.7 kPa	48.835
335.15 K, 739.5 kPa	13.896
336.16 K, 2072.5 kPa	48.83
338.12 K, 2287.8 kPa	56.23
338.16 K, 1739 kPa	37.514
338.17 K, 1365.6 kPa	27.574
338.2 K, 2096.6 kPa	48.825
339.16 K, 2108.2 kPa	48.823
340.12 K, 2318.8 kPa	56.224
340.15 K, 752.5 kPa	13.892
340.15 K, 2419 kPa	60.32
340.16 K, 2120.6 kPa	48.821
342.12 K, 2347.8 kPa	56.219
342.16 K, 1388.9 kPa	27.569
342.16 K, 2144.2 kPa	48.816
342.16 K, 2450.7 kPa	60.314
342.17 K, 1773.5 kPa	37.506
344.12 K, 2376.7 kPa	56.213
344.16 K, 2167.5 kPa	48.811
344.16 K, 2482.2 kPa	60.308
346.12 K, 2404.5 kPa	56.208
346.14 K, 2707.5 kPa	68.66
346.15 K, 768.9 kPa	13.888
346.15 K, 1412.4 kPa	27.563
346.15 K, 2513.1 kPa	60.302
346.16 K, 1806.7 kPa	37.499
346.16 K, 2190.7 kPa	48.806
347.15 K, 2725.9 kPa	68.657
348.13 K, 2432.7 kPa	56.202
348.15 K, 2743.8 kPa	68.653
348.16 K, 2214 kPa	48.801
348.16 K, 2543 kPa	60.296
350.15 K, 1435.8 kPa	27.558
350.15 K, 2460.5 kPa	56.196
350.15 K, 2779.8 kPa	68.646
350.16 K, 1840.5 kPa	37.491
350.16 K, 2237.2 kPa	48.796
350.16 K, 2573.4 kPa	60.29
350.16 K, 2978.2 kPa	78.21
351.16 K, 2999.9 kPa	78.206
352.15 K, 2488.2 kPa	56.191
352.15 K, 2815 kPa	68.639
352.16 K, 2260.1 kPa	48.791
352.16 K, 2603.3 kPa	60.284
352.17 K, 3021.2 kPa	78.202
353.14 K, 3180.2 kPa	85.66
353.16 K, 3042.3 kPa	78.198
354.15 K, 3204.5 kPa	85.656
354.16 K, 790.7 kPa	13.883
354.16 K, 1458.8 kPa	27.552
354.16 K, 1873.7 kPa	37.484
354.16 K, 2283 kPa	48.787
354.16 K, 2515.3 kPa	56.185
354.16 K, 2633.4 kPa	60.278
354.16 K, 2850.7 kPa	68.633
354.17 K, 3062.9 kPa	78.194
355.15 K, 3227.8 kPa	85.651
356.14 K, 2542.3 kPa	56.18
356.15 K, 2663.1 kPa	60.272
356.15 K, 2885.7 kPa	68.626
356.16 K, 2305.7 kPa	48.782
356.16 K, 3104.4 kPa	78.187
356.26 K, 3251.2 kPa	85.647
357.26 K, 3274.8 kPa	85.642
358.15 K, 1481.8 kPa	27.547
358.15 K, 1906.7 kPa	37.477
358.15 K, 2569.2 kPa	56.174
358.15 K, 2920 kPa	68.619
358.15 K, 3297.7 kPa	85.639
358.16 K, 2328.4 kPa	48.777
358.16 K, 2692.5 kPa	60.266
358.16 K, 3145.7 kPa	78.179
358.16 K, 3506.4 kPa	97.915
359.16 K, 3534.2 kPa	97.91
360.15 K, 2595.9 kPa	56.168
360.15 K, 2954.3 kPa	68.612
360.16 K, 2721.3 kPa	60.26
360.16 K, 3186 kPa	78.171
360.16 K, 3343.9 kPa	85.63
360.16 K, 3562.2 kPa	97.905
360.17 K, 2350.8 kPa	48.772
360.17 K, 3660.7 kPa	104.59
361.15 K, 3589.9 kPa	97.9
361.16 K, 3691 kPa	104.585
362.14 K, 2622.7 kPa	56.163
362.15 K, 811.8 kPa	13.877
362.15 K, 2988.3 kPa	68.605
362.15 K, 3226.2 kPa	78.163
362.15 K, 3389.2 kPa	85.622
362.15 K, 3617 kPa	97.896
362.16 K, 1505 kPa	27.541
362.16 K, 1939.6 kPa	37.469
362.16 K, 3721.4 kPa	104.58
362.17 K, 2373 kPa	48.767
362.17 K, 2750.9 kPa	60.254
363.15 K, 3644.5 kPa	97.891
363.16 K, 3751.4 kPa	104.574
364.15 K, 2649.2 kPa	56.157
364.15 K, 3023 kPa	68.598
364.15 K, 3434.4 kPa	85.613
364.15 K, 3780.8 kPa	104.569
364.16 K, 2394.9 kPa	48.762
364.16 K, 3266.5 kPa	78.156
364.16 K, 3671.6 kPa	97.886
364.17 K, 2779.6 kPa	60.248
365.16 K, 3698.9 kPa	97.881
365.16 K, 3810.4 kPa	104.564
366.14 K, 1527.7 kPa	27.536
366.14 K, 2675.7 kPa	56.152
366.15 K, 1971.5 kPa	37.462
366.15 K, 3056.7 kPa	68.592
366.15 K, 3306.2 kPa	78.148
366.15 K, 3478.5 kPa	85.605
366.15 K, 3725.2 kPa	97.876
366.15 K, 3839.8 kPa	104.559
366.16 K, 2417.4 kPa	48.757
366.16 K, 2808.4 kPa	60.242
367.15 K, 3751.8 kPa	97.871
367.15 K, 3869 kPa	104.554
368.14 K, 2702 kPa	56.146
368.14 K, 3090.7 kPa	68.585
368.15 K, 3346 kPa	78.14
368.15 K, 3523.3 kPa	85.596
368.15 K, 3898.1 kPa	104.548
368.16 K, 2439.4 kPa	48.753
368.16 K, 2837.3 kPa	60.236
368.16 K, 3778.8 kPa	97.866
369.14 K, 3805.1 kPa	97.861
369.15 K, 3927.3 kPa	104.543
370.12 K, 1550.1 kPa	27.531
370.13 K, 3123.8 kPa	68.578
370.14 K, 2728 kPa	56.14
370.14 K, 3568 kPa	85.588
370.14 K, 3831.8 kPa	97.857
370.15 K, 833.2 kPa	13.872
370.15 K, 2461.8 kPa	48.748
370.15 K, 3385.9 kPa	78.132
370.15 K, 3956.2 kPa	104.538
370.16 K, 2004 kPa	37.454
370.16 K, 2865.8 kPa	60.23
